Assay results as given in the METLIN SMRT retention time set (Domingo-Almenara et al. 2019).

Assay: gradient 5% acetonitrile 3 min, to 50% in 2 min, to 85% in 15 min, held 3 min, 100 µL/min
Settings: column: Zorbax Extend-C18 2.1 x 50 mm; eluents: water / acetonitrile, 0.1% formic acid
Method in brief: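 Retention times of pure standards were taken from adduct peaks that were selected by computer and manually inspected. Over 3 months, mixtures of ~100 molecules were run by HPLC–quadrupole time-of-flight mass spectrometry in positive and negative ionization mode. The Zorbax Extend-C18 column (2.1 × 50 mm, 1.8 μm) ran at 100 μL/min in water and acetonitrile, each containing 0.1% formic acid, with 40 μL dead volume and 900 μL dwell volume.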

Cn1nc(C(=O)N2CC(n3cc(C(=O)NCC4CC4)nn3)C2)c2ccccc21
RP-LC retention time: 734 s

O=C(NCc1ccc(C(F)(F)F)cc1)c1cnc(-c2ccccc2)nc1-c1ccncc1
RP-LC retention time: 935 s

COc1ccc(NC(=O)N2CCC3(CC2)NC(=O)c2cccc(Cl)c2N3)c(C)c1
RP-LC retention time: 834 s

Fc1ccc(Cn2cc(-c3noc(C4CCCC4)n3)nn2)cc1
RP-LC retention time: 991 s

Cc1nn(Cc2ccc(C(=O)NC3CC3)cc2)c(C)c1S(=O)(=O)N1CCCCC1
RP-LC retention time: 765 s

CCN(CC)CCNC(=O)c1cn(C)nc1S(=O)(=O)N1CCN(c2cc(Cl)ccc2C)CC1
RP-LC retention time: 756 s

O=C(Cc1c(Sc2ccc(F)cc2)[nH]c2ccccc12)N1CCN(c2ccccn2)CC1
RP-LC retention time: 714 s

COCCN(CC1(C)CCOCC1)C(=O)NCc1cccc(F)c1
RP-LC retention time: 768 s

O=C(Cn1c(CN2CCCCCC2)nc2ccccc21)N1CCCCC1
RP-LC retention time: 662 s

CC1=C(c2ccccc2)S(=O)(=O)N=C1N1CCC(NC(=O)COc2ccccc2)CC1
RP-LC retention time: 841 s

CCC1CN2C=Nc3oc(C)c(C(=O)Nc4ccc(F)cc4Br)c3C2=N1 (centres undefined)
RP-LC retention time: 682 s

Cc1nnc2ccc(-c3noc(Cc4ccccc4Br)n3)cn12
RP-LC retention time: 838 s

CC(CNC(=O)c1cc2c(s1)CN(C1CC1)C2)c1ccccc1 (centres undefined)
RP-LC retention time: 731 s

CCOC(=O)c1cccc(Nc2nc(C)nc3c2CCC3)c1
RP-LC retention time: 654 s

Cc1ccc(Cn2c(=O)c(N3CCC(NC(=O)NC(C)C)CC3)nc3cccnc32)cc1
RP-LC retention time: 986 s

COc1ccccc1-c1noc(C2CCCN2C(=O)Nc2ccccc2Cl)n1 (centres undefined)
RP-LC retention time: 947 s

COc1ccc(-c2noc(CN3C(=O)COc4ccc(Cl)cc43)n2)c(OC)c1
RP-LC retention time: 962 s

Cc1cc(F)ccc1NS(=O)(=O)c1cc(-c2[nH]ncc2C(=O)N2CCOCC2)oc1C
RP-LC retention time: 678 s

Cc1ccc(CNC(=O)Cn2ccc3sccc3c2=O)cc1
RP-LC retention time: 740 s

Cc1cccc(Oc2cc(N3CCC(C(=O)Nc4cccc(C(C)C)c4)CC3)ncn2)c1C
RP-LC retention time: 1200 s

COCC(C)(O)CNC(=O)c1ccco1 (centres undefined)
RP-LC retention time: 549 s

O=C(CSCc1ccccc1)Nc1nnc(-c2ccsc2)o1
RP-LC retention time: 757 s

c1ccc(-c2ccc(CNCc3ccc4c(c3)OCO4)o2)cc1
RP-LC retention time: 698 s

O=C(CN1CCN(Cc2cccc(Cl)c2)C1=O)NCc1ccc(N2CCCC2)cc1
RP-LC retention time: 854 s

Cc1ccc(NC(=O)NCC(c2cccnc2)c2cn(C)c3ccccc23)cc1C (centres undefined)
RP-LC retention time: 753 s

CCOC(=O)c1ccc(NC(=O)Cn2c(=O)n(-c3ccc(F)cc3)c(=O)c3c2cc(C)n3C)cc1
RP-LC retention time: 893 s

COc1ccc(-c2nc3cnccn3c2Nc2ccc(C(N)=O)cc2)cc1OC
RP-LC retention time: 593 s

Cc1ccc(CNC(=O)c2ccc3c(c2)nc2n3CCN(C(C)C)C2=O)cc1C
RP-LC retention time: 767 s

Cc1nc([C@@H]2CN(C(=O)CCc3nc4ccccc4[nH]3)C[C@H]2C(N)=O)n[nH]1
RP-LC retention time: 506 s

CC(C)S(=O)(=O)c1ccc(CC(=O)N2CC(c3nc4ccccc4[nH]3)C2)cc1
RP-LC retention time: 562 s

CCN(CC)c1ccc(-c2noc(CN3CCc4ccccc4C3)n2)cn1
RP-LC retention time: 718 s

CC(C)c1ccc(NC(=O)c2cn(C)nc2S(=O)(=O)N2CCSCC2)cc1
RP-LC retention time: 944 s

Cc1cc2nn(CC(=O)NCc3ccc(F)cc3)c(=O)n2c(-c2ccccc2)n1
RP-LC retention time: 744 s

COc1ccccc1C(=O)Nc1cccc(Cl)c1
RP-LC retention time: 964 s

O=C(c1ccc(Cl)c(Cl)c1)N1CCC2(CC1)OCCS2
RP-LC retention time: 890 s

COc1ccc(C2CC(=O)N(c3cccc(Cl)c3)C(=O)C2)cc1OC
RP-LC retention time: 881 s

O=C(NCCN1CCCCCC1)C1CCN(c2cnn(Cc3ccccc3)c(=O)c2)CC1
RP-LC retention time: 614 s

CCOC(=O)c1noc2nc(C)nc(Nc3ccc(F)cc3)c12
RP-LC retention time: 962 s

COc1cc2c(cc1OC)C1C(C(=O)N3CCN(c4ccccn4)CC3)c3ccccc3C(=O)N1CC2 (centres undefined)
RP-LC retention time: 606 s

O=C(NCc1cccs1)C1CCN(c2nnc(-c3ccccc3)o2)CC1
RP-LC retention time: 769 s

COc1cc(NC(=O)Nc2nccn(-c3ccc(C)c(C)c3)c2=O)cc(OC)c1
RP-LC retention time: 955 s

CNC(=O)[C@@H]1CCCN1C(=O)c1ccccc1
RP-LC retention time: 587 s

CC(/C=C1\SC(=S)N(CC(=O)O)C1=O)=C\c1ccccc1
RP-LC retention time: 1150 s

O=C(Cn1nc(N2CCSCC2)c2ccccc2c1=O)Nc1ccc(Cl)cc1
RP-LC retention time: 979 s

O=C1[C@H]2CN(Cc3ccccc3OC(F)(F)F)C[C@H]2C(=O)N1Cc1ccc2c(c1)OCO2
RP-LC retention time: 1050 s

CCOC(=O)c1sc(NC(=O)c2ccc(Br)cc2F)nc1C
RP-LC retention time: 986 s

O=C(NCc1ccc(N2CCOCC2)cc1)c1cn2nc(Cl)ccc2n1
RP-LC retention time: 656 s

CCOC(=O)c1nc(N2CCN(Cc3ccc4c(c3)OCO4)CC2)c2ccccc2n1
RP-LC retention time: 739 s

O=C(CC(=O)Nc1ccccc1Cl)Nc1ccc2nc3n(c(=O)c2c1)CCCCC3
RP-LC retention time: 772 s

OCCN(Cc1ccccc1)CC(O)COc1ccc(Cl)cc1Cl (centres undefined)
RP-LC retention time: 602 s

CCc1cc(=O)n(CC(=O)NCc2ccc(F)c(Cl)c2)c(N2CCOCC2)n1
RP-LC retention time: 764 s

COc1ccccc1CNS(=O)(=O)c1ccc2c(c1)C(=O)N(C)c1ncccc1O2
RP-LC retention time: 907 s

Cc1cccc(N2CCN(C(=O)c3cn4ccc(C)cc4n3)CC2)c1
RP-LC retention time: 668 s

CC(=O)Nc1ccc2c(c1)CN(C(=O)c1c(F)cccc1Cl)C(C(=O)N(C)C)C2 (centres undefined)
RP-LC retention time: 900 s

CCc1cc(C2CCCN2C(=O)Nc2ccc(Cl)cc2)on1 (centres undefined)
RP-LC retention time: 890 s

O=C(c1cccs1)N1CCCn2cc(-c3ccccc3F)nc21
RP-LC retention time: 666 s

CCOc1ccccc1NC(=O)N1CCCC(Cn2c(C3CC3)nc3cccnc32)C1 (centres undefined)
RP-LC retention time: 725 s

CC(C)n1cc(S(=O)(=O)Nc2cccc(F)c2)c2cccnc21
RP-LC retention time: 877 s

CN(C)C(=O)c1ccc2c(c1)nc(CN(C)C(=O)Nc1ccccc1Br)n2C
RP-LC retention time: 618 s

O=C(N1CCC(n2nc(-c3ccsc3)ccc2=O)CC1)C1(c2ccccc2)CC1
RP-LC retention time: 869 s

CC(C)[C@H](NC(=O)CNC(=O)OC(C)(C)C)C(=O)N[C@H](C=O)C(C)C
RP-LC retention time: 749 s

COc1ccc(NC(=O)Nc2cccc(-c3ccc(N4CCOCC4)nn3)c2)cc1Cl
RP-LC retention time: 715 s

CCc1nccn1Cc1noc(-c2cccc(Cl)c2)n1
RP-LC retention time: 656 s

O=C(Nc1ccc2c(c1)OCCO2)N1CCC(Cc2nc(-c3cccnc3)n[nH]2)C1 (centres undefined)
RP-LC retention time: 592 s

O=C1C=C(NCCc2ccccc2)c2ccccc2C1=O
RP-LC retention time: 736 s

Cc1nc2sc(C)c(C)n2c(=O)c1NC(=O)c1ccc(Br)o1
RP-LC retention time: 688 s

COc1ccccc1-c1nc(Cn2nnc(-c3nc(-c4ccc5c(c4)OCO5)no3)c2C)c(C)o1
RP-LC retention time: 700 s

CCOc1cccc(CN2C[C@@H](CO)[C@H](c3ccncc3)C2)c1
RP-LC retention time: 546 s

CSc1ccc(CNC(=O)Cn2ccc3ccc(N4CCOCC4)nc32)cc1
RP-LC retention time: 958 s

COc1ccc(-c2noc(Cc3nnc(-c4cccc(Cl)c4)o3)n2)cc1OC
RP-LC retention time: 973 s

O=c1ccc(-c2ccccc2F)nn1Cc1nc(-c2ccccc2Cl)no1
RP-LC retention time: 1020 s

CCOC(=O)c1ccccc1NC(=O)N(Cc1cc(=O)[nH]c2ccccc12)C(C)C
RP-LC retention time: 891 s

COCCc1noc(C2CN(C(=O)C3(c4ccc(OC)cc4)CC3)C2)n1
RP-LC retention time: 738 s

O=C(Cc1csc(NC(=O)c2ncccn2)n1)Nc1nc2ccccc2s1
RP-LC retention time: 670 s

Cc1cccc(S(=O)(=O)N2CC3CN(C(=O)c4ccco4)CC(C2)O3)c1
RP-LC retention time: 933 s

COC(=O)c1ncn2c1C(=O)N(Cc1ccc(C)cc1)C(C)(C(=O)NCc1ccc(C)cc1)C2 (centres undefined)
RP-LC retention time: 788 s

O=C(c1ccc(OCC2CCCN(C(=O)c3ccco3)C2)cc1)N1CCOCC1 (centres undefined)
RP-LC retention time: 712 s

CC(=O)Nc1cc(C(=O)NCCN(C)C)ccc1Sc1ccc(Cl)cc1
RP-LC retention time: 589 s

O=C1CC(c2noc(-c3ccc(OC(F)(F)F)cc3)n2)CN1c1ccc(F)cc1 (centres undefined)
RP-LC retention time: 1040 s

O=C(Cn1cnc(-c2nc(-c3ccccc3)cs2)c1)Nc1ccccc1
RP-LC retention time: 819 s

CCOC(=O)COc1cc(-c2ccc(C)cc2)nc2ccc(NC(=O)C3CCCC3)cc12
RP-LC retention time: 854 s

Cc1cccc(-c2noc(-c3nn(CC(=O)NC(C)C)c4ccccc34)n2)c1
RP-LC retention time: 1090 s

CCc1nc(-c2c(C)cc(C)nc2NC(=O)c2ccccc2Br)no1
RP-LC retention time: 828 s

CC(=O)N1CCc2cc(S(=O)(=O)C(C)CC(=O)NC3CCN(Cc4ccccc4)CC3)ccc21 (centres undefined)
RP-LC retention time: 551 s

Cn1nccc1C(=O)N1CCC(c2nc(-c3ccc(F)cc3)no2)CC1
RP-LC retention time: 811 s

O=C(Nc1cc2c3c(c1)CCC(=O)N3CCC2)C(=O)Nc1ccc2c(c1)OCO2
RP-LC retention time: 747 s

CN(Cc1ccccc1)C(=O)C1CCCN(c2ncnc3c2nc2n3CCCCC2)C1 (centres undefined)
RP-LC retention time: 758 s

Cc1cccc2nnc(N3CCC(C(=O)Nc4ccccc4F)CC3)n12
RP-LC retention time: 677 s

O=C(NC1(c2nc(-c3ccncc3)no2)CCCCC1)c1ccc2c(c1)OCO2
RP-LC retention time: 876 s
